Experimental data taken from patent US20210113563A1, “4-(4-CYANO-2-THIOARYL)DIHYDROPYRIMIDINONES FOR TREATING CHRONIC WOUNDS” (pH Pharma Co., Ltd., priority 2015, published 2021).

Legend:
[1] = test system: collagen type I and collagen type III in ulcer tissue; assay: Collagen type I and III in lesions of pressure-applied mouse skin, Sirius red staining; assay type: in vivo; settings: for Collagen type I / Collagen type III: pressure-applied mouse skin, day 3 to 15, Sirius red
Source text: OBJECTIVE: Pressure ulcers (decubitus ulcers) represents a large subgroup of chronic wounds. They mainly affect aged or neurologically immobilized patients. Continuous pressure at discrete skin areas leads to long-lasting hard-to-heal ulcer wounds that are also characterized by neutrophil infiltration. The presented experiment was set up to mimic this condition by applying magnet-induced pressure onto mouse skin folds. Since the area of emerging wounds is variable in form and size, its usability as a readout parameter is technically limited.
METHODS: Magnet placement leads to wounds with dermal neutrophil infiltration and delayed wound healing. Three ischemia-reperfusion (IR) cycles (12 hours on, 12 hours off) were applied in each animal to initiate decubitus ulcer formation.
On day 0 (start of experiment), the mice were weighed and put in anesthesia using an isoflurane/O2/N2O mixture. Back and flank skin was shaven. Skin was moistened with tap water and depilated using Pilca cream. Skin was lifted at the back midline and one magnet was placed on each side of the skin fold so that they were exactly opposite to each other. The magnets were left in place for 12 hours, then taken off for 12 hours. This cycle was repeated three times in total.
After sacrificing (day 15) wounds were excised using a 10 mm punch scalpel.
(§1) To assess the content of collagen type I (mature form) and collagen type III (newly formed) in ulcer tissue, Sirius red staining was performed according to standard protocols.

[2] = test system: collagen type I and collagen type III in ulcer tissue; assay: Collagen type I and III in chronic skin lesions of adriamycin-treated rats, Sirius red staining; assay type: in vivo, rat; settings: for Collagen type I / Collagen type III: adriamycin-treated rats, 10 mg/kg BW o.d.
Source text: (§2) On day 2, 4, 7, 9, 11, 14, 16, 18, 21, 23, 25 and 28 • inhalation anesthesia: isoflurane, O2, N2O mixture • size measurement of the depot and photos Day 28 section • inhalation anesthesia: isoflurane, O2, N2O mixture under anesthesia and then dislocation of the cervical spine • size measurement of the depot and the incision wound and photos • Former depots were harvested by punch biopsies • Wound 1/custodian of any animal->in liquid N2 for peroxidase and elastase determination • Wound 2/custodian of any animal->in liquid N2 for Hydroxyproline determination • Wound 3/custodian of any animal->in formalin fixed for histological studies • Samples were stored for further procedures at −80° C.
After sufficient time in formalin (24-72 h), the samples were trimmed to an appropriate size and transferred to histology-cassettes. The histo-cassettes are watered 2 h under running tap water at room temperature. The drainage and waxing was done using a Leica ASP200, the samples were embedded in paraffin, sectioned by microtome and mounted on slides. The paraffin sections were stained depending on the question (Ladewig or Sirius Red)
as §1

collagen in ulcer tissue = assay: Collagen deposition in chronic skin lesions of adriamycin-treated rats, Ladewig staining; assay type: in vivo, rat; settings: 10 mg/kg BW o.d. p.o., normal skin = 0, no blue staining = −10
Procedure: Vehicle: • DEPO—DMSO, Ethanol, Peanut Oil 5/3/92 (V/V/V) o.d., p.o., 5 ml/kg BW
Day 0: • Animal randomization, marking, inhalation anesthesia: isoflurane, O2, N2O mixture, shaving of lower back, the animals remain on warming pads in order to avoid cooling down during the adriamycin injection, pain prevention with Temgesic s.c.
Depot set: 3 intradermal injections of 0.15 ml adriamycin (2 mg/ml) per animal in front and rear back, size measurement of the depot via caliper.
as §2
Paraffin-embedded skin samples: the skin piece is placed with the downside on a piece of cork and 4 with needles and transferred into formalin (3.7% in PBS). […]

[3] = test system: collagen (hydroxyproline); assay: Hydroxyproline (HYP) assay in skin lesions of adriamycin-treated rats; assay type: in vivo, rat; settings: 10 mg/kg BW o.d. p.o.
Source text: as §2

[4] = test system: wounds of diabetic mouse (db/db); assay: Visual wound size reduction in diabetic mouse (db/db); assay type: in vivo
Procedure: The wounding was conducted in the following manner: • 1) db/db mice were anaesthetized with Isoflurane/O2/N2O (2.5-3.5%/800 ml/min/500 ml/min), and placed on a heating pad upon induction after application of eye ointment • 2) mice were shaven and Pilca was applied for 3-5 minutes to remove the fur and fine hairs 3) two dorsal full thickness wounds were placed with a 8 mm punch biopsie tool after wiping the skin with ethanol and wound size was measured immediately • 4) mice were treated with Temgesic and kept on warming pad until recovery from anaesthesia
Wound Size Measurement: Wound size was measured with a sliding caliper. […] Assuming an elliptic shape, wound area was calculated with:
Wound size reduction on day i was calculated from the initial area on day 0 post wounding: […]

myeloperoxidase (MPO) = assay: Myeloperoxidase (MPO) activity in wound tissue of diabetic mice (db/db); assay type: in vivo; settings: db/db mouse
Procedure: MPO determination is based on the oxidation of H2O2 by a peroxidase in the presence of TMB (3,3′5,5′-Tetramethylbenzidin). The results were quantified with a human MPO standard curve prepared in homogenate buffer, which also serves as a blank. Samples were diluted fifteen fold in homogenate buffer. Of each sample, standard and blank 20 μL were dispensed in a clear flat bottom MWP at RT. Following that 100 μL of fresh 0.2 mM TMB in AC-POX buffer are added and the reaction was started by adding 12.5 μL of 1 mM H2O2 in AC-POX buffer. After 5-10 min 22.5 μL of 1 N H2SO4 was added to stop the reaction and plates were vortexed briefly to evenly distribute the newly developed yellow color. […] Absorption was measured at k=450 nm and the amount of MPO in samples was calculated from standard curve in SoftmaxPro 6.4 after subtracting the blank.
To assess neutrophil activity in wound tissue samples, myeloperoxidase activity was measured.

- EC50 ([4]; in vivo, read-out: Potency (EC50) to improve wound size reduction): 4.5 nM
SMILES: CC1=C(C#N)[C@@H](c2ccc(C#N)cc2S(C)(=O)=O)N(C)C(=O)N1c1cccc(C(F)(F)F)c1 [Example 5, (4 S)-4-[4-Cyano-2-(methylsulfonyl)phenyl]-3,6-dimethyl-2-oxo-1-[3-(trifluoromethyl)phenyl]-1,2,3,4-tetrahydropyrimidine-5-carbonitrile]
- Collagen type III in pressure-induced lesions (in words) ([1]; mice, after 12 days of treatment): significant increase of collagen type III
- Collagen type I ([1]; 1 mg/kg BW o.d.): 1.1
- Collagen type III ([1]; 1 mg/kg BW o.d.): 30.2
- Collagen type I ([1]; 10 mg/kg BW o.d.): 0.7
- Collagen type III ([1]; 10 mg/kg BW o.d.): 49.8
- Collagen type I ([2]; d 14-28, Sirius red): 9.7
- Collagen type III ([2]; d 14-28, Sirius red): 46.69
- Collagen type I ([2]; d 21-37, Sirius red): 8.8
- Collagen type III ([2]; d 21-37, Sirius red): 72.23
- Collagen type III in Adriamycin-induced lesions (in words) ([2]; rats, after two weeks of treatment): strong increase of collagen type III
- Ladewig score (collagen in ulcer tissue): −1.38 (n = 8)
- Hydroxyproline [3]: 5169 (n = 10)
- Visual wound size ([4]; 0.03 mg/kg BW o.d. p.o.): 98.5 % initial area at day 8
- Visual wound size ([4]; 0.1 mg/kg BW o.d. p.o.): 86.07 % initial area at day 8
- Visual wound size ([4]; 0.3 mg/kg BW o.d. p.o.): 72 % initial area at day 8
- Visual wound size ([4]; 1.0 mg/kg BW o.d. p.o.): 71.16 % initial area at day 8
- Visual wound size ([4]; 3.0 mg/kg BW o.d. p.o.): 68.1 % initial area at day 8
- Visual wound size ([4]; 10.0 mg/kg BW o.d. p.o.): 54.85 % initial area at day 8
- Neutrophil dependent inflammatory activity in wound tissue (MPO activity) (myeloperoxidase (MPO); 0.03 mg/kg BW o.d.): 0.00361 Peroxidase Activity/μg Protein
- Neutrophil dependent inflammatory activity in wound tissue (MPO activity) (myeloperoxidase (MPO); 0.1 mg/kg BW o.d.): 0.00029 Peroxidase Activity/μg Protein
- Neutrophil dependent inflammatory activity in wound tissue (MPO activity) (myeloperoxidase (MPO); 0.3 mg/kg BW o.d.): 0.00043 Peroxidase Activity/μg Protein
- Neutrophil dependent inflammatory activity in wound tissue (MPO activity) (myeloperoxidase (MPO); 1.0 mg/kg BW o.d.): 0.00043 Peroxidase Activity/μg Protein
- Neutrophil dependent inflammatory activity in wound tissue (MPO activity) (myeloperoxidase (MPO); 3.0 mg/kg BW o.d.): 0.00027 Peroxidase Activity/μg Protein
- Neutrophil dependent inflammatory activity in wound tissue (MPO activity) (myeloperoxidase (MPO); 10.0 mg/kg BW o.d.): 0.00016 Peroxidase Activity/μg Protein
- Inhibition of MPO activity in wound tissue (in words) (myeloperoxidase (MPO); from 0.1 mg/kg): potently and effectively inhibited MPO activity in wound tissue
